In patent US20260001889A1, “COMPOSITIONS USEFUL FOR MODULATING SPLICING” (Skyhawk Therapeutics, Inc., priority 2022, published 2026):

Tests used:
ATXN3-HiBiT protein = test: ATXN3 Total Protein Assay (Kelly-ATXN3-HiBiT luminescence); format: cell-based; details: Kelly-ATXN3-HiBiT cells, 48 h after addition of compound
How it was run: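 Kelly cells with homozygous C-terminal HiBiT knock-in on endogenous ATXN3, 2000 per well, dosed 24 h after seeding. HiBiT lytic luminescence read 48 h after compound; sister plate read with CellTiter-Glo for viability; fold change vs DMSO.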

total ATXN3 protein = test: ATXN3 Total Protein Assay (Mesoscale Discovery, SK-N-MC cells); format: cell-based, Human; details: incubation for 48 hours, MSD assay
How it was run: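 Human SK-N-MC neuroblastoma cells treated with compound at 30 μM to 0.6 nM for 48 h, then lysed with protease inhibitors. Total ATXN3 quantified by MSD sandwich immunoassay (mouse capture, rabbit detect antibodies, anti-rabbit MSD-ST secondary) against recombinant ATXN3 standards.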

[1] = test system: ATXN3 transcripts containing exon 4; test: ATXN3 Quantitative Splicing Assay (qPCR, E4E5 primers/probe); format: cell-based; details: Homo sapiens, SK-N-MC cells, compounds for 24 h
How it was run: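 SK-N-MC human neuroblastoma cells treated 24 h with compound from 30 μM to 0.6 nM, 24 h after plating. Lysate cDNA was run in TaqMan qPCR, with primers/probe E4E5 detecting exon 4-containing ATXN3 transcripts and E8E9 measuring total ATXN3.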

Structure (SMILES) | EC50 (ATXN3-HiBiT protein) [nM] | IC50 (total ATXN3 protein) [nM] | IC50 [1] [nM]
C#Cc1c(C[C@@H](N)CC(F)(F)F)oc2c(NCc3ccco3)cc(Cl)nc12 [Compound 120, 2-[(R)-2-amino-4,4,4-trifluorobutyl]-5-chloro-3-ethynyl-7-(furfurylamino)-1-oxa-4-azaindene] | 501 to 5000 | 101 to 500 | 101 to 500
C#Cc1c(C[C@@H](N)CC(F)(F)F)oc2c(NCc3cccs3)cc(Cl)nc12 [Compound 121, 2-[(R)-2-amino-4,4,4-trifluorobutyl]-5-chloro-3-ethynyl-7-thenylamino-1-oxa-4-azaindene] | 101 to 500 | 101 to 500 | 101 to 500
C#Cc1c(C[C@@H](N)[C@H](C)F)oc2c(NCc3ccco3)cc(Cl)nc12 [Compound 122, 2-[(2R,3S)-2-amino-3-fluorobutyl]-5-chloro-3-ethynyl-7-(furfurylamino)-1-oxa-4-azaindene] | 0.01 to 100 | 0.01 to 100 | 0.01 to 100
C#Cc1c(C[C@@H](N)[C@H](C)F)oc2c(NCc3cccs3)cc(Cl)nc12 [Compound 123, 2-[(2R,3S)-2-amino-3-fluorobutyl]-5-chloro-3-ethynyl-7-thenylamino-1-oxa-4-azaindene] | 0.01 to 100 | 0.01 to 100 | 0.01 to 100
C[C@H](N)Cc1oc2c(NCc3ncco3)cc(Cl)nc2c1Br [Compound 124, 2-[(2S)-2-aminopropyl]-3-bromo-5-chloro-N-(1,3-oxazol-2-ylmethyl) furo[3,2-b]pyridin-7-amine] | 501 to 5000 | 501 to 5000 | 501 to 5000
C[C@H](O)[C@H](N)Cc1oc2c(NCc3cccs3)cc(Cl)nc2c1Br [Compound 125, (2S,3R)-3-amino-4-(3-bromo-5-chloro-7-thenylamino-1-oxa-4-aza-2-indenyl)-2-butanol] | 0.01 to 100 | 0.01 to 100 | 0.01 to 100
C[C@@H](O)[C@H](N)Cc1oc2c(NCc3cccs3)cc(Cl)nc2c1Br [Compound 126, (2R,3R)-3-amino-4-(3-bromo-5-chloro-7-thenylamino-1-oxa-4-aza-2-indenyl)-2-butanol] | 101 to 500 | 101 to 500 | 101 to 500
N[C@@H](CCO)Cc1oc2c(NCc3cccs3)cc(Cl)nc2c1Br [Compound 131, (S)-3-amino-4-(3-bromo-5-chloro-7-thenylamino-1-oxa-4-aza-2-indenyl)-1-butanol] | 0.01 to 100 | 0.01 to 100 | 101 to 500
CC#C[C@H](N)Cc1oc2c(NCc3cccs3)cc(Cl)nc2c1Br [Compound 132, 2-[(R)-2-amino-3-pentynyl]-3-bromo-5-chloro-7-thenylamino-1-oxa-4-azaindene] | 501 to 5000 | 101 to 500 | 501 to 5000
N[C@H](Cc1oc2c(NCc3cccs3)cc(Cl)nc2c1Br)C1CC(F)(F)C1 [Compound 133, 2-[(R)-2-amino-2-(3,3-difluorocyclobutyl)ethyl]-3-bromo-5-chloro-7-thenylamino-1-oxa-4-azaindene] | 501 to 5000 | 501 to 5000 | 501 to 5000
N[C@H](Cc1oc2c(NCc3cccs3)cc(Cl)nc2c1Br)C1CC1 [Compound 134, 2-[(R)-2-amino-2-cyclopropylethyl]-3-bromo-5-chloro-7-thenylamino-1-oxa-4-azaindene] | 501 to 5000 | 501 to 5000 | 501 to 5000
C#Cc1c(C[C@@H](N)C2CC(F)(F)C2)oc2c(NCc3cccs3)cc(Cl)nc12 [Compound 139, 2-[(R)-2-amino-2-(3,3-difluorocyclobutyl)ethyl]-5-chloro-3-ethynyl-7-thenylamino-1-oxa-4-azaindene] | 501 to 5000 | 501 to 5000 | 501 to 5000
C[C@H](F)[C@H](N)Cc1oc2c(NCc3sccc3F)cc(Cl)nc2c1Cl [Compound 140, 2-[(2R,3S)-2-amino-3-fluorobutyl]-3,5-dichloro-7-{[(3-fluoro-2-thienyl)methyl]amino}-1-oxa-4-azaindene] | 101 to 500 | 101 to 500 | 101 to 500
Cc1c(C[C@@H](N)[C@H](C)F)oc2c(NCc3sccc3F)cc(Cl)nc12 [Compound 142, 2-[(2R,3S)-2-amino-3-fluorobutyl]-5-chloro-7-{[(3-fluoro-2-thienyl)methyl]amino}-3-methyl-1-oxa-4-azaindene] | 101 to 500 | 101 to 500 | 101 to 500
N[C@@H](CCF)Cc1oc2c(NCc3cccs3)cc(Cl)nc2c1Br [Compound 145, 2-[(R)-2-amino-4-fluorobutyl]-3-bromo-5-chloro-7-thenylamino-1-oxa-4-azaindene] | 101 to 500 | 101 to 500 | 101 to 500
C[C@H](F)[C@H](N)Cc1oc2c(NCc3cccs3)cc(Cl)nc2c1Cl [Compound 148, 2-[(2R,3S)-2-amino-3-fluorobutyl]-3,5-dichloro-7-thenylamino-1-oxa-4-azaindene] | 0.01 to 100 | 0.01 to 100 | 0.01 to 100

Structure (SMILES) | EC50 (ATXN3-HiBiT protein) [nM] | IC50 (total ATXN3 protein) [nM] | IC50 [1] [nM]
C[C@H](F)[C@H](N)Cc1oc2c(NCc3ccncc3F)cc(Cl)nc2c1Cl [Compound 149, 2-[(2R,3S)-2-amino-3-fluorobutyl]-3,5-dichloro-7-{[(3-fluoro-4-pyridyl)methyl]amino}-1-oxa-4-azaindene] | 101 to 500 | 101 to 500 | 101 to 500
C[C@H](F)[C@H](N)Cc1oc2c(NCc3ccco3)cc(Cl)nc2c1Cl [Compound 150, 2-[(2R,3S)-2-amino-3-fluorobutyl]-3,5-dichloro-7-(furfurylamino)-1-oxa-4-azaindene] | 0.01 to 100 | 0.01 to 100 | 0.01 to 100
C#Cc1cc(NCc2cccs2)c2oc(C[C@@H](N)COC)c(Br)c2n1 [Compound 151, 2-[(R)-2-amino-3-methoxypropyl]-3-bromo-5-ethynyl-7-thenylamino-1-oxa-4-azaindene] | 0.01 to 100 | 101 to 500 | 0.01 to 100
C[C@H](F)[C@H](N)Cc1oc2c(NCc3ccccc3F)cc(Cl)nc2c1Br [Compound 152, 2-[(2R,3S)-2-amino-3-fluorobutyl]-3-bromo-5-chloro-7-{[(o-fluorophenyl)methyl]amino}-1-oxa-4-azaindene] | 501 to 5000 | 101 to 500 | 101 to 500
C[C@H](F)[C@H](N)Cc1oc2c(NCc3c(F)cccc3F)cc(Cl)nc2c1Br [Compound 153, 2-[(2R,3S)-2-amino-3-fluorobutyl]-3-bromo-5-chloro-7-{[(2,6-difluorophenyl)methyl]amino}-1-oxa-4-azaindene] | 10000 to 40000 | 5000 to 10000 | 10000 to 40000
N[C@@H](CCOC(F)F)Cc1oc2c(NCc3cccs3)cc(Cl)nc2c1Br [Compound 154, (S)-2-(2-amino-4-(difluoromethoxy)butyl)-3-bromo-5-chloro-N-(thiophen-2-ylmethyl)furo[3,2-b]pyridin-7-amine] | 0.01 to 100 | 0.01 to 100 | 0.01 to 100
[2H]C([2H])([2H])OC[C@H](N)Cc1oc2c(NCc3cccs3)cc(Cl)nc2c1Br [Compound 157, 2-[(R)-2-amino-3-(2H3)methoxypropyl]-3-bromo-5-chloro-7-thenylamino-1-oxa-4-azaindene] | 0.01 to 100 | 0.01 to 100 | 0.01 to 100
CC#Cc1cc(NCc2cccs2)c2oc(C[C@H](C)N)c(Br)c2n1 [Compound 160, 2-[(S)-2-aminopropyl]-3-bromo-5-(1-propynyl)-7-thenylamino-1-oxa-4-azaindene] | 101 to 500 | 101 to 500 | 501 to 5000
C#Cc1cc(NCc2cccs2)c2oc(C[C@H](C)N)c(C#C)c2n1 [Compound 162, 2-[(S)-2-aminopropyl]-3,5-diethynyl-7-thenylamino-1-oxa-4-azaindene] | 101 to 500 | 0.01 to 100 | 0.01 to 100
C=Cc1cc(NCc2cccs2)c2oc(C[C@H](C)N)c(Br)c2n1 [Compound 164, 2-[(S)-2-aminopropyl]-3-bromo-7-thenylamino-5-vinyl-1-oxa-4-azaindene] | 501 to 5000 | 5000 to 10000 | 5000 to 10000
C[C@H](N)Cc1oc2c(NCc3cccs3)cc(C(=O)O)nc2c1Br [Compound 167, 2-[(2S)-2-aminopropyl]-3-bromo-7-[(thiophen-2-ylmethyl)amino]furo[3,2-b]pyridine-5-carboxylic acid] | 10000 to 40000 | 10000 to 40000 | 10000 to 40000
CC[C@H](N)Cc1oc2c(NCc3cccs3)cc(Cl)nc2c1Br [Compound 169, 2-[(S)-2-aminobutyl]-3-bromo-5-chloro-7-thenylamino-1-oxa-4-azaindene] | 101 to 500 | 101 to 500 | 501 to 5000
C#Cc1cc(NCc2cccs2)c2oc(C[C@@H](N)C3CC(F)(F)C3)c(C#C)c2n1 [Compound 178, 2-[(R)-2-amino-2-(3,3-difluorocyclobutyl)ethyl]-3,5-diethynyl-7-thenylamino-1-oxa-4-azaindene] | 501 to 5000 | 501 to 5000 | 501 to 5000
C#Cc1c(C[C@@H](N)C2CC2)oc2c(NCc3cccs3)cc(Cl)nc12 [Compound 180, 2-[(R)-2-amino-2-cyclopropylethyl]-5-chloro-3-ethynyl-7-thenylamino-1-oxa-4-azaindene] | 101 to 500 | 101 to 500 | 101 to 500
C#Cc1cc(NCc2cccs2)c2oc(C[C@@H](N)C3CC3)c(C#C)c2n1 [Compound 181, 2-[(R)-2-amino-2-cyclopropylethyl]-3,5-diethynyl-7-thenylamino-1-oxa-4-azaindene] | 501 to 5000 | 501 to 5000 | 501 to 5000
